Measurements from PubChem BioAssay (NCI).
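96-well plates; 48 h exposure; 5 concentrations. Endpoints by linear interpolation between flanking doses. Not reached: highest tested concentration assigned. Here, GI50 denotes the concentration required for 50% inhibition of growth. TGI denotes the concentration required for complete inhibition of growth.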

How the values were obtained:
Experiment in all cases: NCI anticancer screen, dose series, 48 h
786-0 renal = system: 786-0 renal
HT29 colon = system: HT29 colon
M14 melanoma = system: M14 melanoma
NCI/ADR-RES ovarian = system: NCI/ADR-RES ovarian
OVCAR-5 ovarian = system: OVCAR-5 ovarian
SK-MEL-2 melanoma = system: SK-MEL-2 melanoma
SW-620 colon = system: SW-620 colon
NCI-H226 lung = system: NCI-H226 lung
SK-MEL-28 melanoma = system: SK-MEL-28 melanoma
HCC-2998 colon = system: HCC-2998 colon

Compound `CCOC(=O)C(Cc1ccc(N(CCCl)CCCl)cc1)NC(=O)C(Cc1ccccc1)NC=O` (stereo not given) has a TGI (786-0 renal) of 0.303 µM, a TGI (HT29 colon) of 0.289 µM and a TGI (M14 melanoma) of 0.31 µM. It also gave a TGI (NCI/ADR-RES ovarian) of 0.656 µM, a TGI (OVCAR-5 ovarian) of 0.548 µM and a TGI (SK-MEL-2 melanoma) of 0.989 µM. The TGI (SW-620 colon) was 0.414 µM.
With `O=C(O)/C(Cc1cn[nH]n1)=N\O` the TGI (786-0 renal) was > 100 µM, the TGI (HT29 colon) was > 100 µM and the TGI (M14 melanoma) was > 100 µM. For the same compound, the TGI (NCI-H226 lung) was > 100 µM, the TGI (NCI/ADR-RES ovarian) was > 100 µM and the TGI (OVCAR-5 ovarian) was > 100 µM. For the same compound, the TGI (SK-MEL-2 melanoma) was > 100 µM, the TGI (SK-MEL-28 melanoma) was > 100 µM and the TGI (SW-620 colon) was > 100 µM.
With `COc1ccc(-c2ccc(/C=N/n3c(COc4ccccc4Cl)nn(CN4CCOCC4)c3=S)o2)c([N+](=O)[O-])c1` the GI50 (786-0 renal) was 34.4 µM, the TGI (786-0 renal) was > 100 µM and the GI50 (HCC-2998 colon) was 24.1 µM. The TGI (HCC-2998 colon) was 56.8 µM, the GI50 (HT29 colon) was 49.9 µM and the TGI (HT29 colon) was > 100 µM. It also gave a GI50 (M14 melanoma) of 22.3 µM, a TGI (M14 melanoma) of 55.8 µM and a GI50 (NCI/ADR-RES ovarian) of 21.3 µM. The TGI (NCI/ADR-RES ovarian) was 49.2 µM, the GI50 (OVCAR-5 ovarian) was 55.3 µM and the TGI (OVCAR-5 ovarian) was > 100 µM. For the same compound, the GI50 (SK-MEL-28 melanoma) was 46 µM, the TGI (SK-MEL-28 melanoma) was > 100 µM and the GI50 (SW-620 colon) was 27.4 µM. For the same compound, the TGI (SW-620 colon) was 87.1 µM.
For `CC(C)c1cccc(C(C)C)c1N1C(=O)C(=O)C(c2nc3ccccc3o2)C(=O)C1=O`, the TGI (786-0 renal) was 84.3 µM, the TGI (HCC-2998 colon) was > 100 µM and the TGI (HT29 colon) was > 100 µM. For the same compound, the TGI (M14 melanoma) was > 100 µM, the TGI (NCI-H226 lung) was > 100 µM and the TGI (OVCAR-5 ovarian) was > 100 µM. For the same compound, the TGI (SK-MEL-2 melanoma) was > 100 µM, the TGI (SK-MEL-28 melanoma) was > 100 µM and the TGI (SW-620 colon) was > 100 µM.
In the case of `COc1ccc(C2=Nc3ccccc3SC(C)C2)cc1OC` (stereo not given), the TGI (786-0 renal) is reported as 30.2 µM, the TGI (HCC-2998 colon) is reported as 32.6 µM and the TGI (HT29 colon) is reported as 37.2 µM. It also gave a TGI (M14 melanoma) of 33 µM, a TGI (NCI-H226 lung) of 36.6 µM and a TGI (OVCAR-5 ovarian) of 52.6 µM. For the same compound, the TGI (SK-MEL-2 melanoma) was 72.2 µM, the TGI (SK-MEL-28 melanoma) was 56.6 µM and the TGI (SW-620 colon) was 18.6 µM.
`CN=C1C=CC(=C(c2ccc(N(C)C)cc2)c2ccc(N(C)C)cc2)C=C1` was tested, and the GI50 (786-0 renal) was 0.292 µM, the TGI (786-0 renal) was 1.18 µM and the GI50 (HCC-2998 colon) was 0.309 µM. For the same compound, the TGI (HCC-2998 colon) was 1.27 µM, the GI50 (HT29 colon) was 0.105 µM and the TGI (HT29 colon) was 0.496 µM. It also gave a GI50 (M14 melanoma) of 0.28 µM, a TGI (M14 melanoma) of 1.08 µM and a GI50 (NCI/ADR-RES ovarian) of 1.5 µM. The TGI (NCI/ADR-RES ovarian) was 4.83 µM, the GI50 (OVCAR-5 ovarian) was 0.312 µM and the TGI (OVCAR-5 ovarian) was 3.43 µM. For the same compound, the GI50 (SK-MEL-2 melanoma) was 0.202 µM, the TGI (SK-MEL-2 melanoma) was 0.462 µM and the GI50 (SK-MEL-28 melanoma) was 0.482 µM. For the same compound, the TGI (SK-MEL-28 melanoma) was 2.07 µM, the GI50 (SW-620 colon) was 0.185 µM and the TGI (SW-620 colon) was 1.35 µM.
In the case of `Cc1cc(N(CCOS(C)(=O)=O)CCOS(C)(=O)=O)ccc1C(=O)O`, the GI50 (786-0 renal) is reported as > 100 µM, the TGI (786-0 renal) is reported as > 100 µM and the GI50 (HCC-2998 colon) is reported as > 100 µM. The TGI (HCC-2998 colon) was > 100 µM, the GI50 (HT29 colon) was > 100 µM and the TGI (HT29 colon) was > 100 µM. The GI50 (M14 melanoma) was > 100 µM, the TGI (M14 melanoma) was > 100 µM and the GI50 (NCI-H226 lung) was > 100 µM. The TGI (NCI-H226 lung) was > 100 µM, the GI50 (NCI/ADR-RES ovarian) was > 100 µM and the TGI (NCI/ADR-RES ovarian) was > 100 µM. The GI50 (OVCAR-5 ovarian) was > 100 µM, the TGI (OVCAR-5 ovarian) was > 100 µM and the GI50 (SK-MEL-28 melanoma) was > 100 µM. The TGI (SK-MEL-28 melanoma) was > 100 µM, the GI50 (SW-620 colon) was > 100 µM and the TGI (SW-620 colon) was > 100 µM.
With `O=C(NNc1ccc(Cl)cc1)C1CCC(CNS(=O)(=O)c2ccccc2Cl)CC1` (stereo not given) the GI50 (786-0 renal) was 13.7 µM, the TGI (786-0 renal) was 34 µM and the GI50 (HCC-2998 colon) was 1.48 µM. For the same compound, the TGI (HCC-2998 colon) was 13.8 µM, the GI50 (M14 melanoma) was 2.89 µM and the TGI (M14 melanoma) was 10.7 µM. For the same compound, the GI50 (NCI-H226 lung) was 20.2 µM, the TGI (NCI-H226 lung) was > 100 µM and the GI50 (NCI/ADR-RES ovarian) was 15.5 µM. It also gave a TGI (NCI/ADR-RES ovarian) of 50.7 µM, a GI50 (OVCAR-5 ovarian) of 17.3 µM and a TGI (OVCAR-5 ovarian) of 55 µM. For the same compound, the GI50 (SK-MEL-2 melanoma) was 30.9 µM, the TGI (SK-MEL-2 melanoma) was > 100 µM and the GI50 (SW-620 colon) was 40.6 µM. The TGI (SW-620 colon) was > 100 µM.
`N#Cc1ccccc1NC(=O)C(=O)C1NC(=S)NC1=O` (stereo not given) was tested, and the TGI (786-0 renal) was > 100 µM, the TGI (HCC-2998 colon) was > 100 µM and the TGI (HT29 colon) was > 100 µM. For the same compound, the TGI (M14 melanoma) was > 100 µM, the TGI (NCI-H226 lung) was > 100 µM and the TGI (OVCAR-5 ovarian) was > 100 µM. The TGI (SK-MEL-28 melanoma) was > 100 µM and the TGI (SW-620 colon) was > 100 µM.
